We go through 13 molecules from US7153977B2, “Ligands and methods for preparing same” (National University of Singapore, priority 2000, dated 2006).

Like-named read-outs stand apart in the source and are kept apart here.

The nature of series [1]: Hydrophobicity on C18 reversed-phase column. The conditions noted are these: compared with cytidine and SMCC. The format is physicochemical. The protocol:
N-Succinimidyl 4-[N-maleimidomethyl]cyclohexane-1-carboxylate (SMCC) and cytidine were dissolved in anhydrous dimethysulfoxide (DMSO) separately prior reaction. The reaction started when these two reagents were mixed at room temperature and shielded from light. The molar concentration ratio of SMCC:cytidine in the mixture was 0.10 M:0.15 M with pH 7.5–8.0 in the reaction system. Within 4 hrs, CrMCC was found in the reaction mixture and can be separated from cytidine and SMCC by a C18 reversed-phase column (Resource RPC, Pharmacia) operated on a HPLC (AKTA Purifier, Pharmacia) using the absorbance wavelength of 300 nm. Cytidine was eluted by 100% water and CrMCC and SMCC were eluted by 15% acetonitrile in water with the flow rate 1.5 ml/min. […] Formation of CrMCC reached its near maximum after 48 hrs of reaction between SMCC and cytidine at 22–24° C. (FIG. 4). The area under the peak was calculated using a computer program UNICORN (version 2.0).

Series [2] addresses T1, es nucleoside transporter (human HL-60 promyelocytic leukemia plasma membranes) (Homo sapiens, UniProt Q99808).
T1 sequence (Q99808 1-456): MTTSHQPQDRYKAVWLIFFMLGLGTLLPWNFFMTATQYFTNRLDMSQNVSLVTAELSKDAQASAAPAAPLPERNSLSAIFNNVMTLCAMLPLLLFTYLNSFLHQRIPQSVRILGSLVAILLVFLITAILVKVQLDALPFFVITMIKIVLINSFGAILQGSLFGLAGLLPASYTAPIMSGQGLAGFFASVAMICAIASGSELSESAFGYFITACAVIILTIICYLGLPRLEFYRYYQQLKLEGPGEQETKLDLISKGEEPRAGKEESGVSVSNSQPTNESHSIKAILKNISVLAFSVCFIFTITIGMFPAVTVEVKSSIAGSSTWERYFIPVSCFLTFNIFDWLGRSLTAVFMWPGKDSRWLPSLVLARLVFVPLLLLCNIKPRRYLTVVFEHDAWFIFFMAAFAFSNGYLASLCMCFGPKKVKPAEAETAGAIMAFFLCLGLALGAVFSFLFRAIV
Put plainly: 3H-NBMPR binding to HL-60 plasma membranes. The conditions noted are these: for IC50: 5 min pretreatment, 5 nM 3H-NBMPR 30 min, read-out: IC50 of inhibition of specific 3H-NBMPR binding. Also noted: Bmax of 3H-NBMPR binding in presence of CrMCC: unit not given here.

Series [3] has as its system es nucleoside transporter (human HL-60 promyelocytic leukemia plasma membranes). Nature of the series: 3H-CrMCC binding to HL-60 plasma membranes.
Protocol: This experiment was conducted to investigate the rate of ^3H-CrMCC binding to the unsealed plasma membranes of HL-60 cells. […] The binding reaction in FIG. 9 was terminated by membrane filtration method and the data were corrected for filter blanks.
It is important to confirm the binding of ^3H-CrMCC to the unsealed HL-60 plasma membranes is indeed irreversible. Purified unsealed HL-60 plasma membranes were incubated with 30 μM of ^3H-CrMCC for 10 min. After which the mixtures were diluted 20 folds and the diluted mixtures were sat at room temperature for various time intervals to allow dissociation to occur. […] The dissociation reaction shown in FIG. 10 was terminated by membrane filtration method and the data were corrected for filter blanks.
Purified unsealed HL-60 plasma membranes were incubated with 30 μM of ^3H-CrMCC for 5 min. The reaction mixture was then diluted 20-fold with reaction buffer of various pH values (pH 0.85 to 7.5). The dissociation reaction was terminated by membrane filtration method. The data were corrected for filter blanks.
The subject of the next series is HL-60 cells. Put plainly: Growth of HL-60 cells. The conditions noted are these: 3 days of exposure; for effect on HL-60 cell growth: concentrations as high as 100 μM.
Series [4] can be described thus: Storage stability of lyophilized CrMCC. The format is physicochemical. The conditions noted are these: −20° C. in a desiccator.
Series [5] deals with T2, 5-HT receptor (3H-5-HT high and low affinity binding sites of murine brain membranes).
T2 construct: other: 5 min pretreatment, 5 nM 3H-5-HT 30 min
Put plainly: Inhibition of 3H-5-HT binding to murine brain membranes. The conditions noted are these: for IC50: 5 min pretreatment, 5 nM 3H-5-HT 30 min. The method, then: (§1) Purified murine brain membranes suspended in reaction buffer (0.13 M NaCl, 0.02 M NaHCO3, pH 7.0) were pretreated with graded concentrations of LBT3001 (▪), LBT3002 (□), LBT3004 (∘), and LBT3005 (●) for 5 min prior exposure to ^3H-5-HT (5 nM final concentration) for additional 30 min. The reaction was terminated by membrane vacuum filtration method. […] The results were plotted against control binding determined in the absence of inhibitors.

The target of series [6] is 5-HT receptor (3H-5-HT high and low affinity binding sites of murine brain membranes). The series is described as above. The conditions noted are these: 5 min pretreatment, 5 nM 3H-5-HT 30 min. The protocol:
as §1

In series [7] the target is T3, ei transport system in rat Morris 7777 cells (Rattus norvegicus, UniProt O54699).
T3 sequence (O54699 1-456): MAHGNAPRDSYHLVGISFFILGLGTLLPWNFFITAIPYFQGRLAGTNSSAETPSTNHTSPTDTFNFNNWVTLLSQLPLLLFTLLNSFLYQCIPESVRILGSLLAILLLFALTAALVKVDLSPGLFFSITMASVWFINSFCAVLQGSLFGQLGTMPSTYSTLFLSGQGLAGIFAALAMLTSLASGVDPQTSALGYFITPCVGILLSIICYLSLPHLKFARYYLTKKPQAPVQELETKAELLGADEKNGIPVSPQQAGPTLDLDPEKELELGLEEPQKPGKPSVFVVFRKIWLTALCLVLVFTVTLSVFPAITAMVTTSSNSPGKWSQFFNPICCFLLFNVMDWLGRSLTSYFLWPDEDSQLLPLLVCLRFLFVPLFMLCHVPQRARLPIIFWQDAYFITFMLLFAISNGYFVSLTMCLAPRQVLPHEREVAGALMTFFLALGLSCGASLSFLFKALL
Nature of the series: NEM inhibition of 3H-uridine transport in Morris 7777 cells (only ei).

Series [8] has as its target T4, es transport system in murine EL-4 cells (Mus musculus, UniProt Q9JIM1).
T4 sequence (Q9JIM1 1-460): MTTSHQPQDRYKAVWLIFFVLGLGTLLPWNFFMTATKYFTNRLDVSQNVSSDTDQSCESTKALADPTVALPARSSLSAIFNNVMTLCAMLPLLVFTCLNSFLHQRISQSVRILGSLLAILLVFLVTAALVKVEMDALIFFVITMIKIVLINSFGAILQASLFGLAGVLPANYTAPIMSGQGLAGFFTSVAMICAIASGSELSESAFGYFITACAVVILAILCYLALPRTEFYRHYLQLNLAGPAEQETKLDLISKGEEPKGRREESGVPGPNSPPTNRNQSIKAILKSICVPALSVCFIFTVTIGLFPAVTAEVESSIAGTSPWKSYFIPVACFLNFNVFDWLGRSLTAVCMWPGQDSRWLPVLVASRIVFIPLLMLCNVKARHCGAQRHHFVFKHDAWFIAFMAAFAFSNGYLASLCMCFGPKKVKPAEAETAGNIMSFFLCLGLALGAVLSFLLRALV
Nature of the series: NEM inhibition of 3H-uridine transport in EL-4 cells (only es).

The target of series [9] is T5, es nucleoside transporter (Homo sapiens, UniProt Q99808).
T5 sequence (Q99808 1-456): T1 sequence (Q99808 1-456)
The conditions noted are these: known from the art; cited from earlier work.

The next series has as its target T6, es transporter protein (Mus musculus, UniProt Q9JIM1).
T6 sequence (Q9JIM1 1-460): T4 sequence (Q9JIM1 1-460)
The conditions noted are these: Lee et al. (1995), cited from earlier work.

Where [10] appears, read: 1 mM physiological nucleoside, 30 μM 3H-CrMCC.

As usually defined, the IC50 is the concentration at which inhibition is half-maximal. The Ki is the dissociation constant of the complex between target and ligand, obtained from inhibition or displacement. Usually Kd stands for the constant that tells how readily two partners part at equilibrium. As for “1-[[4-[(4-amino-1-β-D-ribofuranosyl-2(1H)-pyrimidione)carbonyl]cyclohexyl]methyl]-1H-pyrrole-2,5-dione [CrMCC]”, in series [1], the hydrophobicity result is listed as “greater than that of cytidine but is less than that of SMCC”. In addition, the “Bmax of 3H-NBMPR binding in presence of CrMCC” value in series [2] (HL-60 membranes pretreated with 10 μM CrMCC 5 min) came out at 0.59±0.01; in series [2] (HL-60 membranes pretreated with 50 μM CrMCC 5 min), 0.30±0.01. The IC50 in series [2] (HL-60 plasma membranes) is 10 µM. In addition, the Ki in series [2] (HL-60 plasma membranes, read-out: Ki (calculated) for 3H-NBMPR binding) was 1 µM. Also, in [2] (double reciprocal plot), the “mode of inhibition of 3H-NBMPR binding” value is “non-competitive inhibition”. For the same molecule, the “time needed to achieve maximum binding” value in [3] (30 μM 3H-CrMCC) was ≥ 5 min. In addition, the “dissociation from binding sites after 20-fold dilution” value in series [3] (30 μM radioligand 10 min, then 20-fold dilution, room temperature, up to at least 60 min) is “little or no dissociation”. The “pH below which ligand-receptor complexes began to break down” value in series [3] (buffers pH 0.85 to 7.5) was “below 3.5”. In [3] (physiological pH, 20-fold dilution in buffer), the “stability of 3H-CrMCC-receptor complexes” value is recorded as “very stable”. Moreover, in [3] (read-out: Kd of high affinity component, 3 to 800 μM 3H-CrMCC, 10 min), the Kd came out at 23.8 ± 2.2 µM. Besides, in the series with HL-60 cells, the “effect on HL-60 cell growth” value is recorded as “little or no effect”. In series [4], the “stability of activity on storage” value was “stable for at least three months”.
As to `O=C1C=CC(=O)N1CCc1c[nH]c2ccc(O)cc12` [LBT3001, 1-[2-(5-hydroxy-1H-indol-3-yl)-ethyl]-pyrrole-2,5-dione], in [5], the “efficacy as irreversible binding compounds” value (from here on “efficacy”) is “demonstrated efficacy as irreversible binding compounds” and the half-inhibitory concentration (IC50) was ~1 nM. The IC50 in series [6] is ~50 µM.
For the molecule `O=C(CCCN1C(=O)C=CC1=O)NCCc1c[nH]c2ccc(O)cc12` [LBT3002, 4-(2,5-dioxo-2,5-dihydro-pyrrol-1-yl)-N-[2-(5-hydroxyl-1H-indol-3-yl)-ethyl]-butyramide], in series [5], the “efficacy” value is recorded as “demonstrated efficacy as irreversible binding compounds” and the IC50 was ~0.03 nM. For the same molecule, the IC50 in [6] is ~200 µM.
On to `O=C(CCN1C(=O)C=CC1=O)NCCc1c[nH]c2ccc(O)cc12` [LBT3004, 3-(2,5-dioxo-2,5-dihydro-pyrrol-1-yl)-N-[2-(5-hydroxyl-1H-indol-3-yl)-ethyl]-propionamide], for which the “efficacy” value in [5] was “demonstrated efficacy as irreversible binding compounds”. The IC50 in [5] is ~200 nM; in [6] it was ~50 µM.
The like results for `O=C(NCCc1c[nH]c2ccc(O)cc12)C1CCC(CN2C(=O)C=CC2=O)CC1` (stereo not drawn) [LBT3005, 4-(2,5-dioxo-2,5-dihydro-pyrrol-1-yl-methyl)-cyclohexane carboxylic acid [2-(5-hydroxy-1H-indol-3-yl)-ethyl]-amide] were, in that order, “demonstrated efficacy as irreversible binding compounds”, 500 nM and 300 µM.
On to `CCN1C(=O)C=CC1=O` [NEM, N-Ethylmaleimide], for which the “inhibition of 3H-CrMCC binding” value in series [3] (1 mM NEM, 30 μM 3H-CrMCC) is recorded as “as effective as 0.5 mM of CrMCC”. For the same molecule, the IC50 in [7] is ~1500 µM; in series [8] it was ~100 µM.
As to `O=C(ON1C(=O)CCC1=O)C1CCC(CN2C(=O)C=CC2=O)CC1` (stereo not drawn) [SMCC, N-Succinimidyl 4-[N-maleimidomethyl]cyclohexane-1-carboxylate, reference compound], the IC50 is 100 µM in series [2] (HL-60 plasma membranes) and < 0.5 µM with HL-60 cells (read-out: IC50 on cell growth, HL-60 cells).
As to `Nc1ncnc2c1ncn2[C@@H]1O[C@H](CO)[C@@H](O)[C@H]1O` [adenosine], the “inhibition of 3H-CrMCC binding” value in series [3] (setting [10]) is “failed to inhibit”.
As to `Nc1ccn([C@@H]2O[C@H](CO)[C@@H](O)[C@H]2O)c(=O)n1` [cytidine], in series [3] (30 μM radioligand), the “level of binding to HL-60 plasma membranes” value was “low”. Moreover, the “displacement of 3H-CrMCC from its binding sites” value in series [3] (1 mM in the dilution medium) is on record as “failed to displace”. In series [3] (setting [10]), the “inhibition of 3H-CrMCC binding” value was “failed to inhibit”. Moreover, in the series with HL-60 cells, the “effect on HL-60 cell growth” value is given as “little or no effect”.
On to `COc1cc(C(=O)OCCCN2CCCN(CCCOC(=O)c3cc(OC)c(OC)c(OC)c3)CC2)cc(OC)c1OC` [dilazep], for which, in series [9], the “rate of binding of reversible antagonists” value is “rapid and mostly completed within first minute of incubation”. Also, the “protection of sulfhydryl group from NEM modification” value (“protection of sulfhydryl group” for short) at es transporter protein (at 30 μM) is “incapable of protecting”.
As to `OCCN(CCO)c1nc(N2CCCCC2)c2nc(N(CCO)CCO)nc(N3CCCCC3)c2n1` [dipyridamole], the “inhibition of 3H-CrMCC binding” value in [3] (20 μM es nucleoside transport inhibitor, 30 μM 3H-CrMCC) is reported as “failed to inhibit”. The “protection of sulfhydryl group” value at es transporter protein (at 30 μM) is “incapable of protecting”.
Take `OC[C@H]1O[C@@H](n2cnc3c(O)ncnc32)[C@H](O)[C@@H]1O` [inosine]: the “inhibition of 3H-CrMCC binding” value in series [3] (setting [10]) was “failed to inhibit”.
With `O=c1ccn([C@@H]2O[C@H](CO)[C@@H](O)[C@H]2O)c(=O)[nH]1` [uridine], in [3] (setting [10]), the “inhibition of 3H-CrMCC binding” value is recorded as “failed to inhibit”. Besides, at es transporter protein (at 10 mM), the “protection of sulfhydryl group” value is listed as “incapable of protecting”.
